Key:
Assay in all cases: relative viability (nuclei count vs DMSO), 5 days (fraction); higher = more cells survive
CUDC-101 + Foretinib = compound: C#Cc1cccc(Nc2ncnc3cc(OC)c(OCCCCCCC(=O)NO)cc23)c1 [CUDC-101] + COc1cc2c(Oc3ccc(NC(=O)C4(C(=O)Nc5ccc(F)cc5)CC4)cc3F)ccnc2cc1OCCCN1CCOCC1 [Foretinib] (partner 0.25 µM)
How it was run: (§1)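 Relative viability equals treated-well nuclei counts divided by vehicle-well nuclei counts. Counts came from 4× images of lung cancer cell lines grown in 1536-well plates for 5 days after pin-tool dosing on the day after seeding. Dosing used one drug alone or a fixed anchor-drug dose plus five library-drug doses (not always all listed) in √10 steps, and values are medians of duplicate plates.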

NVP-TAE684 + Phenformin = compound: COc1cc(N2CCC(N3CCN(C)CC3)CC2)ccc1Nc1ncc(Cl)c(Nc2ccccc2S(=O)(=O)C(C)C)n1 [NVP-TAE684] + N=C(N)NC(=N)NCCc1ccccc1 [Phenformin] (partner 250 µM)
How it was run: as §1

CUDC-101 + Decitabine = compound: C#Cc1cccc(Nc2ncnc3cc(OC)c(OCCCCCCC(=O)NO)cc23)c1 [CUDC-101] + Nc1ncn([C@H]2C[C@H](O)[C@@H](CO)O2)c(=O)n1 [Decitabine] (partner 2 µM)
How it was run: as §1

CUDC-101 + Alpelisib = compound: C#Cc1cccc(Nc2ncnc3cc(OC)c(OCCCCCCC(=O)NO)cc23)c1 [CUDC-101] + Cc1nc(NC(=O)N2CCC[C@H]2C(N)=O)sc1-c1ccnc(C(C)(C)C(F)(F)F)c1 [Alpelisib] (partner 2 µM)
How it was run: as §1

Cell Line | relative viability (CUDC-101 + Foretinib; first compound 0.01 µM) | relative viability (CUDC-101 + Foretinib; first compound 0.03162 µM) | relative viability (CUDC-101 + Foretinib; first compound 0.1 µM) | relative viability (CUDC-101 + Foretinib; first compound 0.3162 µM) | relative viability (CUDC-101 + Foretinib; first compound 1 µM) | relative viability (NVP-TAE684 + Phenformin; first compound 0.2 µM) | relative viability (NVP-TAE684 + Phenformin; first compound 0.6325 µM) | relative viability (NVP-TAE684 + Phenformin; first compound 2 µM) | relative viability (CUDC-101 + Decitabine; first compound 0.01 µM) | relative viability (CUDC-101 + Decitabine; first compound 0.03162 µM) | relative viability (CUDC-101 + Decitabine; first compound 0.1 µM) | relative viability (CUDC-101 + Decitabine; first compound 0.3162 µM) | relative viability (CUDC-101 + Decitabine; first compound 1 µM) | relative viability (CUDC-101 + Alpelisib; first compound 0.01 µM) | relative viability (CUDC-101 + Alpelisib; first compound 0.03162 µM) | relative viability (CUDC-101 + Alpelisib; first compound 0.1 µM) | relative viability (CUDC-101 + Alpelisib; first compound 0.3162 µM) | relative viability (CUDC-101 + Alpelisib; first compound 1 µM)
LCLC-97TM1 | 0.844 | 0.824 | 0.962 | 0.829 | 0.666 | 0.4 | 0.382 | 0.113 | 0.286 | 0.24 | 0.227 | 0.228 | 0.191 | 0.261 | 0.266 | 0.235 | 0.233 | 0.15
NCI-H1915 | 1.09 | 1.04 | 1.08 | 1.09 | 0.707 | 0.332 | 0.343 | 0.369 | 0.262 | 0.267 | 0.28 | 0.248 | 0.23 | 1.07 | 0.997 | 1.11 | 1.04 | 0.788
NCI-H358 | 0.815 | 0.565 | 0.759 | 0.675 | 0.179 | 0.285 | 0.226 | 0.0829 | 0.209 | 0.204 | 0.174 | 0.206 | 0.112 | 1.21 | 0.871 | 0.926 | 0.71 | 0.415
LK-2 | 1.23 | 1.19 | 0.957 | 0.819 | 0.554 | 0.364 | 0.238 | 0.233 | 0.262 | 0.329 | 0.384 | 0.2 | 0.125 | 1.08 | 0.959 | 1.09 | 1.05 | 0.647
EPLC-272H | 0.664 | 0.723 | 0.646 | 0.341 | 0.585 | 0.282 | 0.267 | 0.146 | 0.327 | 0.363 | 0.341 | 0.301 | 0.309 | 0.985 | 0.887 | 0.92 | 0.926 | 0.845
A-427 | 1.01 | 0.975 | 1.01 | 1.06 | 0.877 | 0.285 | 0.257 | 0.221 | 0.617 | 0.619 | 0.591 | 0.568 | 0.554 | 1.15 | 1.1 | 1.11 | 1.02 | 0.887
NCI-H1755 | 0.899 | 0.905 | 0.99 | 1.01 | 0.903 | 0.631 | 0.537 | 0.512 | 0.695 | 0.748 | 0.83 | 0.755 | 0.64 | 0.96 | 0.944 | 0.956 | 0.972 | 0.844
NCI-H838 | 1.04 | 1.02 | 1.08 | 1.23 | 0.862 | 0.468 | 0.395 | 0.193 | 0.45 | 0.516 | 0.49 | 0.484 | 0.369 | 1.01 | 0.89 | 1.06 | 1.08 | 0.914
ABC-1 | 1.04 | 0.797 | 1.07 | 0.704 | 0.519 | 0.218 | 0.226 | 0.122 | 0.989 | 0.92 | 0.992 | 0.985 | 1.03 | 1.15 | 1.07 | 0.819 | 0.609 | 0.572
NCI-H2228 | 0.763 | 0.939 | 1.11 | 0.964 | 0.719 | 0.23 | 0.158 | 0.113 | – | – | – | – | – | 0.795 | 0.802 | 0.625 | 0.563 | 0.491
NCI-H1793 | 0.669 | 0.449 | 0.628 | 0.5 | 0.403 | 0.35 | 0.371 | 0.26 | 0.388 | 0.493 | 0.467 | 0.431 | 0.435 | 0.796 | 0.41 | 0.658 | 0.627 | 0.546
NCI-H1563 | 0.925 | 0.872 | 0.851 | 0.895 | 0.87 | 0.662 | 0.645 | 0.53 | – | – | – | – | – | 0.919 | 0.815 | 0.925 | 0.942 | 0.882
NCI-H1650 | 1.09 | 0.615 | 0.976 | 0.905 | 0.59 | 0.505 | 0.285 | 0.148 | 0.351 | 0.444 | 0.469 | 0.387 | 0.302 | – | – | – | – | –
NCI-H1623 | 0.847 | 0.821 | 0.711 | 0.911 | 0.483 | 0.552 | 0.598 | 0.484 | – | – | – | – | – | – | – | – | – | –
NCI-H2342 | 0.995 | 1.02 | 1.03 | 1.08 | 0.946 | 0.532 | 0.614 | 0.361 | 0.737 | 0.718 | 0.739 | 0.777 | 0.709 | – | – | – | – | –
EBC-1 | 0.0994 | 0.109 | 0.109 | 0.0873 | 0.0665 | – | – | – | – | – | – | – | – | 0.796 | 0.709 | 0.696 | 0.721 | 0.319
ChaGo-K-1 | 0.916 | 0.875 | 0.945 | 0.894 | 0.709 | 0.533 | 0.457 | 0.339 | 0.558 | 0.47 | 0.555 | 0.505 | 0.492 | – | – | – | – | –
NCI-H1299 | 1.08 | 1.06 | 1.13 | 1.12 | 1.04 | – | – | – | – | – | – | – | – | 1.08 | 1 | 1.11 | 1.06 | 1.05
Calu-6 | 0.932 | 0.857 | 0.878 | 0.823 | 0.714 | – | – | – | – | – | – | – | – | 1.02 | 0.939 | 0.986 | 1 | 0.763
NCI-H1703 | 0.323 | – | 0.353 | 0.402 | 0.424 | – | – | – | – | – | – | – | – | 0.303 | – | 0.322 | 0.53 | 0.506
CAL-12T | 1.11 | 1.06 | 1.18 | 1.16 | 1.16 | 0.365 | 0.472 | 0.117 | – | – | – | – | – | 1.38 | 0.984 | 1.42 | 1.11 | 1.21
NCI-H1648 | – | – | – | – | – | – | – | – | 0.548 | 0.519 | 0.439 | 0.451 | 0.324 | – | – | – | – | –

From the supplement of paper PMC10307832
